Laboratory results: US20250082654A1, “AZD3355 (LESOGABERAN) FOR TREATMENT AND PREVENTION OF NONALCOHOLIC STEATOHEPATITIS (NASH), LIVER FIBROSIS, AND OTHER LIVER CONDITIONS” (Icahn School of Medicine at Mount Sinai, priority 2018, published 2025)

Test: NASH mouse model, body weight
Type: in vivo
Settings: male and female NASH model mice, 12-week treatment
Protocol: The experimental protocol was reviewed and approved by the Institutional Animal Care and Use Committee (IACUC) at Icahn School of Medicine at Mount Sinai, NY. Male and Female C57BL/6J mice (age: 6 weeks; weight: 20-25 g) were purchased from Jackson Laboratories (Farmington, CT). Animals were housed in a 12 hours light—12 hours dark cycle in the animal facility at Icahn School of Medicine at Mount Sinai, NY and handled following guidelines for the care and use of laboratory animals. Male and female mice were maintained in separate cages.
Carbon tetrachloride (CC14) was purchased from Sigma-Aldrich, MO. CC14 was freshly dissolved in corn oil at final concentration of 5% before injection. […]
Western diet containing 21.2% fat (42% Kcal), 41% sucrose and 1.25% cholesterol by weight was purchased from Envigo, WI (Teklad Custom diet Cat #TD.120528). […] During change of food and water we have been measured the amount of food and water intake and the data was collected.
Four separate groups of mice were given either 0.5% methylcellulose (as Vehicle) or AZD3355 at 10 mg/kg (low dose) body weight of mice or 30 mg/kg (high dose) body weight of mice by twice daily (BID (5 days/week)) and OCA at 30 mg/kg body weight of mice by daily (QD (5 days/week)) through oral route for up to next 12 weeks (week 13 to week 24). […] All animals were closely monitored the health conditions and behavior.

NC[C@@H](F)C[PH](=O)O [AZD3355, [(2R)-3-amino-2-fluoropropyl] phosphinic acid]
body weight during treatment: stable
